Columns and labels:
[1] = test system: synaptosomes from the striatal area of rat brain (dopamine release); experiment: [3H]-dopamine release from striatal synaptosomes of rat brain; assay type: cell-based, rat (Sprague-Dawley); details: evaluated as described in Example 1
Protocol: Dopamine release was measured by preparing synaptosomes from the striatal area of rat brain generally obtained from Sprague-Dawley rats according to the procedures set forth by Nagy, et al., J. Neurochem., Vol. 43, pp. 1114-1123 (1984). Striata from 4 rats were homogenized in 2 ml of 0.32M sucrose buffered with 5 mM HEPES (pH 7.5), using a glass-teflon tissue grinder. The homogenate was diluted to 5 ml with additional homogenization solution and centrifuged at 1000×g for 10 min. This procedure was repeated on the new pellet and the resulting supernatant was centrifuged at 12,000×g for 20 min. […] Using this method, 30 to 90 percent of the dopamine was taken up into the synaptosomes, as determined by scintillation counting following filtration through glass fiber filters soaked with 0.5 percent polyethyleneimine. […] After the addition of a 0.2 ml of a 20 μM solution of ligand, the perfusate was collected into scintillation vials at 1 min. intervals and the dopamine released was quantified by scintillation counting. Peaks of radioactivity released above background were summed and the average basal release during that time was subtracted from the total. Release was expressed as a percentage of release obtained with an equal concentration of (S)-(-)-nicotine.

[2] = in vivo; cited from earlier work
[3] = test system: acetylcholine release in brain tissue; details: direct action; cited from earlier work
[4] = test system: nicotinic cholinergic receptors; details: chronic administration to animals; cited from earlier work
[5] = test system: nicotinic cholinergic receptors; details: acute administration; cited from earlier work
[6] = biological target: nicotinic cholinergic receptors; experiment: Inhibition of L-[3H]nicotine binding to mouse brain membranes; parameters: species or system mouse (DBA strain); details: racemic mixture of ligand, 10 nM L-[3H]nicotine, 2 hr, 4° C.
Protocol: Mice (DBA strain) were maintained on a 12 hour light/dark cycle and were allowed free access to water and food supplied by Wayne Lab Blox, Madison, Wis. Animals used in the present studies were 60 to 90 days of age and weighed 20 to 25 g. Brain membrane preparations were obtained from pooled brain tissue of both males and females.
Mice were killed by cervical dislocation. Brains were removed and placed on an ice-cold platform. […] Protein was determined by the method of Lowry, et al., J. Biol. Chem., Vol. 193, pp. 265-275 (1951), using bovine serum albumin as the standard.
The binding of L-[^3 H]nicotine was measured using a modification of the method of Romano, et al., Science, Vol. 210, pp. 647-650 (1980) as described previously by Marks, et al., Mol. Pharmacol., Vol. 30, pp. 427-436 (1986). The binding of L-[^3 H]nicotine was measured using a 2 hr. incubation at 4° C. […] Nonspecific binding was determined by inclusion of 10 μM nonradioactive nicotine in the incubations. The inhibition of L-[^3 H]nicotine binding by test compounds was determined by including one of eight different concentrations of the test compound in the incubation. […] Inhibition constants (Ki values) were calculated from the IC50 values using the method of Cheng, et al., Biochem. Pharmacol., Vol. 22, pp. 3099-3108 (1973). […]

Q: Which “dopamine release (in words)” value [1] does the source give for `CC(=O)C1=C(C)CC2CCC1N2C` (stereo not drawn) [Example 3, 2-acetyl-3,8-dimethyl-8-azabicyclo[3.2.1]oct-2-ene] here?
A: The value was “found to provide dopamine release”.

Q: For `CN1CCCC1c1cccnc1` (stereo not drawn) [nicotine], which attention [2] is on record?
A: Its attention is “enhance attention”.

Q: And the cognitive functions [2]?
A: The cognitive functions was “improve cognitive functions”.

Q: And the “release of acetylcholine in brain tissue” value [3]?
A: Its value is “elicit the release of acetylcholine in brain tissue”.

Q: What about the “number of nicotinic cholinergic receptors” value [4] of the same compound?
A: Its value is “elicit an increase in the number of such receptors”.

Q: What about the “activation of nicotinic cholinergic receptors” value [5] of the same compound?
A: Its value is “suggested to possess an ability to activate nicotinic cholinergic receptors”.

Q: For `CC(=O)C1=CCC2CCC1N2C` (stereo not drawn) [Ferruginine, ferruginine], which Ki [6] is on record?
A: The Ki was 3100 ± 500 nM.

Q: Which Ki [6] does the source give for `CC(=O)C1=CCC2CCC1N2` (stereo not drawn) [Norferruginine, norferruginine] here?
A: The Ki was 1100 ± 300 nM.

Q: Which “dopamine release (in words)” value [1] does the source give for `CC(=O)C1=C(C)CC2CCC1N2` (stereo not drawn) [Example 2, 2-acetyl-3-methyl-8-azabicyclo[3.2.1]oct-2-ene] here?
A: Its value is “found to provide dopamine release”.

From US5227385A, “Method for treatment of neurodegenerative diseases” (priority 1992, dated 1993)
